We go through 5 compounds from US20250090564A1, “BIOACTIVES AND THEIR USES” (AREPA IP LIMITED, priority 2022, published 2025).

The conditions of data set [1]: in vivo; cited from earlier work.
In another data set the test system is MAO-A and B. The note with it: irreversible, non-selective inhibitor; cited from earlier work.
The next data set addresses T1, platelet MAO-B (Homo sapiens, UniProt P27338).
T1 construct: platelets were isolated from whole blood; from tissue; host or cells: platelets isolated from venous blood of human participants
T1 sequence (P27338 1-520): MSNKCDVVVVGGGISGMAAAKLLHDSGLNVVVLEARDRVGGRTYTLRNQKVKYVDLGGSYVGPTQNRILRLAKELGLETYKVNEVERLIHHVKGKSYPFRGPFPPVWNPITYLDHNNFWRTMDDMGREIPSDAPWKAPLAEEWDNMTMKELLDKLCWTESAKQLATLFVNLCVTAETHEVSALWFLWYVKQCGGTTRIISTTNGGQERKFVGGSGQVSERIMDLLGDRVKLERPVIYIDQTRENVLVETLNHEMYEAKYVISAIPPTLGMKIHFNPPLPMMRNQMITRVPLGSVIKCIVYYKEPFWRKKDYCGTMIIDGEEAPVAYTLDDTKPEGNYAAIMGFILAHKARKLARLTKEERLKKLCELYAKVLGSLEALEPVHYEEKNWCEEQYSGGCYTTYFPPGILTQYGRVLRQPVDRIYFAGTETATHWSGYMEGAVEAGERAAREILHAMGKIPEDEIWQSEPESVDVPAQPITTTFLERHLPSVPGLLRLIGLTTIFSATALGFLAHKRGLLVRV
Put plainly: Acute sarmentosin pilot study, platelet MAO-B activity (Example 10). The data set is classed as in vivo. Particulars: for platelet MAO-B activity compared with baseline (0 h): 2 h after consumption; for platelet MAO-B activity compared with baseline: 4 h after consumption. On the procedure:
To determine the efficacy of sarmentosin in temporally inhibiting platelet MAO-B activity, we conducted a randomized, placebo-controlled crossover study. Human participants completed three treatment conditions (placebo, 42 mg sarmentosin, and 84 mg sarmentosin), with each trial day separated by at least 48 h.
Five healthy male adults aged between 25 and 36 years old were enrolled in this study. Participants were randomly allocated one of the three trial treatment beverages. All participants completed all three treatment arms of the study, and data from all participants were included in the study analysis. Enrolled participants were required to take part in three trial days where they consumed their allocated sarmentosin beverages or the placebo. Participants adhered to the same dietary restrictions and consumed the same standardized breakfast as previously described in the intervention study. A venous blood sample was collected at the beginning of each trial day, and then, participants were given their treatment beverage to consume immediately. […] Water was provided ad libitum during the trial day, and participants were seated in the clinical trial facility between venous blood collection time points.
Blackcurrant juice previously confirmed to contain sarmentosin was diluted 1:1 with RO-purified H2O and slowly applied to a column (10 cm diameter×125 cm height) filled with Diaion HP20 resin (Mitsubishi Chemical Industries, Japan). The eluant was collected until it was determined that most of sarmentosin had eluted and was quantified as described previously. Sarmentosin fractions were combined and concentrated using a rotary evaporator, and the resulting sarmentosin-rich fraction was then sterile filtered (Millipore Stericup (0.22 μM), Sigma-Aldrich).
Participants consumed a 250 mL beverage containing 42 and 84 mg total sarmentosin, similar to that present in one and two servings, respectively, of a commercial BC juice (Arepa Performance). Sucrose, BC flavouring, and coloring were added to the beverages to blind for taste and appearance. The placebo beverage was matched for sucrose, contained the same volume of added BC flavouring and coloring produced by Sensient Technologies (Auckland, New Zealand) as the sarmentosin beverages, and diluted to 250 mL to match for sweetness, appearance, and flavor.

In a further data set the target is T2, MAO-B (Sus scrofa, UniProt Q6PLK3).
T2 sequence (Q6PLK3 2-520): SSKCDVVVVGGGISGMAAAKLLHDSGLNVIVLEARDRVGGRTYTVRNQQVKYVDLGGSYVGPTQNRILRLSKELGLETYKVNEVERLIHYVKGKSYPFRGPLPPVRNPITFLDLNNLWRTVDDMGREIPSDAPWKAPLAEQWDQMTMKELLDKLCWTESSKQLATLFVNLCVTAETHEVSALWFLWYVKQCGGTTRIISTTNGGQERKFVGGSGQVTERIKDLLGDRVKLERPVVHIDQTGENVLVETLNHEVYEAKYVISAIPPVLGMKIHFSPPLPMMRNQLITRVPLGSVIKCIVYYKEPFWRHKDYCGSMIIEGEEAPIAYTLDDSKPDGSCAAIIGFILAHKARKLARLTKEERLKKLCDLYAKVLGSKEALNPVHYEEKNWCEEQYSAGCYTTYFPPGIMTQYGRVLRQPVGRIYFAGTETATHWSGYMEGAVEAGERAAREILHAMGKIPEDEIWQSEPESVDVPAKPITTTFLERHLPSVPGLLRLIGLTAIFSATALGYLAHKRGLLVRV
Put plainly: S9 porcine liver microsome fraction assay, kynuramine to 4HQ by LCMS. The note with it: qualitative statement.

The conditions of data set [2]: human, in vivo. The protocol:
Plasma was separated from whole blood collected in lithium heparin tubes from participants by centrifugation at 4000×g for 10 min at 4° C. Plasma (1 mL) was spiked with 30 μL of 50% formic acid and 100 µL of 10 mmol ascorbic acid then stored at −80° C. prior to shipping on dry ice to the Physiological Chemistry laboratory.
The plasma samples (350 μL) were spiked with malvidin 3-O-galactoside and further acidified with phosphoric acid prior to clean up on a SOLAμ™ Solid Phase Extraction plate. Following washing with water and acetic acid, the retained anthocyanins were eluted with methanol: formic acid (95:5), evaporated to dryness then reconstituted in acetonitrile: formic acid: water (5:3:92) prior to analysis by Liquid Chromatography-Mass Spectrometry (LC-MS). Quantifications of individual and total anthocyanins were performed using the internal standard ratio method using MultiQuant software, and all results are reported as cyanidin 3-O-glucoside equivalents. Quantification of sarmentosin was performed using an external reference standard supplied by Stephen Bloor (Callaghan Institute).

The target in another data set is T3, human enzyme MAO-B (Homo sapiens, UniProt P27338).
T3 sequence (P27338 1-520): T1 sequence (P27338 1-520)
Description: MAO-Glo assay kit, MAO-B. The note with it: highest concentration tested. It counts as biochemical. On the procedure:
(§1) Synthetic sarmentosin (BOC Sciences; Cat. No. B2703-149954) was diluted in PBS for the MAO inhibition assays. […] Briefly, samples were combined with the kit's luminogenic MAO substrate solution and human enzyme (MAO-A or MAO-B at a final concentration of 20 μg/mL) and incubated at room temperature for 1 h. Following incubation, the luciferin detection reagent were added to each sample and the change in luminescence was measured at room temperature over 40 min in a FLUOstar Omega plate reader (BMG FluoStar Optima, Alphatech Systems, Auckland, New Zealand). […] All samples were analysed in triplicate on each plate.

Data set [3] in a line: In vitro digestion of blackcurrant juice concentrate (pepsin/acid, bile salts/pancreatin), LCMS. It counts as in vitro ADME. The protocol:
Samples were taken at the end of 1st step and at 30 min intervals in the 2nd step to give 6 samples for analysis. The samples will be examined (LCMS) for the level of sarmentosin and sarmentosin esters and compared with the feed material. The two samples were treated as shown below in Table 17 to replicate digestion. [table] Samples taken from the subsequent treatments were stored frozen until required for analysis. The samples were all a similar volume and concentration of original juice. Analysis was performed using LCMS (method described in the earlier work). Samples were prepared in two ways, 1. addition of methanol to precipitate any protein or 2. Direct sampling of neat solution after centrifugation.

Data set [4] addresses T4, MAO-A (Homo sapiens, UniProt P21397).
T4 sequence (P21397 1-527): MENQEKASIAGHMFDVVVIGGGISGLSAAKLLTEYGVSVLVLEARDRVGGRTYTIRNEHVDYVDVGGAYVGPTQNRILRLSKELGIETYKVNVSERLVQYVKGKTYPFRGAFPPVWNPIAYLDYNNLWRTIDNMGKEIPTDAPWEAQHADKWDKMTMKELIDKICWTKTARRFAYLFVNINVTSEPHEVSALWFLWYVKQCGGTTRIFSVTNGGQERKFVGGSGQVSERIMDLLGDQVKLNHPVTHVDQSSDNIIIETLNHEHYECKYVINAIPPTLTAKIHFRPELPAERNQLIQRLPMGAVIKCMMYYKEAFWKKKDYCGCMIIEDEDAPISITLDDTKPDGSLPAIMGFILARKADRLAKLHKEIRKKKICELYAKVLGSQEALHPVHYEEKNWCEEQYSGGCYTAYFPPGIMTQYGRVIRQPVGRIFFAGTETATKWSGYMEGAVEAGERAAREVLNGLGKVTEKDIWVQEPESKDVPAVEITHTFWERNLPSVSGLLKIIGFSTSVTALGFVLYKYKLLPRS
Description: MAO-Glo assay kit, MAO-A. The data set is classed as biochemical. Particulars: dose response curve, 1 h room temperature. The protocol: as §1

Data set [5] has as its target T4, MAO-A. Set-up: purchased Sigma-Aldrich MAK295/296. Particulars: reversible inhibitor; cited from earlier work.

Where two headings read alike, the source gives them in different places.

What is called inhibition is how much of the control response was suppressed. Higher therefore signals a strong effect. In general, IC50 refers to the concentration needed to halve the response being measured. Read a low IC50 as greater potency in that assay.

`O=C(NCCN1CCOCC1)c1ccc(Cl)cc1` [Moclobemide]: in [1], the “time to reach peak concentrations” value is “approximately 1 hours”.

Take `NNCCc1ccccc1` [Phenelzine]: the “duration of inhibition of MAO-A and B” value in the data set with MAO-A and B was “up to three”.

Turning to `N#C/C(=C\CO[C@@H]1O[C@H](CO)[C@@H](O)[C@H](O)[C@H]1O)CO` [sarmentosin, 4-(beta-D-glucopyranosyloxy)-2-(hydroxymethyl-2-butenenitrile)], at platelet MAO-B (42 mg sarmentosin), the “platelet MAO-B activity compared with baseline (0 h)” value is reported as “similarly inhibited platelet MAO-B activity” and the “platelet MAO-B activity compared with baseline” value is recorded as “MAO-B activity comparable to baseline”. At platelet MAO-B (84 mg sarmentosin), the “platelet MAO-B activity compared with baseline (0 h)” value was “similarly inhibited platelet MAO-B activity” and the “platelet MAO-B activity compared with baseline” value is on record as “MAO-B activity comparable to baseline”. In addition, on MAO-B, the “MAO inhibition activity in S9-LCMS bioassay (level of 4HQ)” value is on record as “the same activity”. In addition, in [2], the “time of peak concentrations of sarmentosin in plasma” value was found to be 120 min. Further, the inhibition at 250 µM at human enzyme MAO-B worked out at 32%. In [3], the “concentration after in vitro digestion steps” value is “increase” and the “effect of final heating step (90 C. for 10 min) after digestion” value is given as “some degradation”. This compound also came in with an IC50 against MAO-A [4] of 3.55 µM.

Consider `Cc1cccc(N2CC(CO)OC2=O)c1` (centres unmarked) [toloxatone], for which the “duration of MAO-A inhibition before activity returns to baseline” value at MAO-A [5] was “six”.

Regarding nigrumin-p-coumarate, the “concentration after in vitro digestion steps” value in [3] (esters: steps 3 through 5, sarmentosin: steps 3 and 4, FIGS. 32 and 33) was “decrease”.
